Drawing on patent US6872729B2, “Pyrimidinylbenzimidazole and triazinylbenzimidazole derivatives and agricultural/horticultural fungicides” (Kumiai Chemical Industry Co., Ltd., priority 1998, dated 2005), this text covers melting point and Biological effectiveness for 44 molecules.

In one series the test system is Erysiphe graminis. In words: Test for preventive effect on wheat powdery mildew. Format: in vivo. To be noted: wheat (Norin-61-go) seedlings, 500 ppm active ingredient, preventive treatment; diseased area of first leaves 10 days after inoculation with Erysiphe graminis. The essentials: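 Wheat seedlings (Norin-61-go), grown 8 days, were sprayed with wettable-powder solutions at 500 ppm active ingredient, air-dried, then inoculated by sprinkling Erysiphe graminis spores. Plants were kept at 20-25° C. Diseased area on first leaves was scored 10 days post-inoculation against a rating standard.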

Take `COc1cc(OC)nc(-n2c(SC)nc3ccccc32)n1` [Compound I-4, 1-(4,6-dimethoxypyrimidin-2-yl)-2-methylthiobenzimidazole]: the melting point (commonly the temperature of the solid-liquid transition) fell in the range of 135 to 137 °C.

`COc1cc(OC)nc(-n2c(S(C)(=O)=O)nc3ccccc32)n1` [Compound I-5, 1-(4,6-dimethoxypyrimidin-2-yl)-2-methylsulfonylbenzimidazole] showed a melting point of 114 to 117 °C.

As for `COc1cc(OC)nc(-n2c(OC)nc3ccccc32)n1` [Compound I-18, 1-(4,6-dimethoxypyrimidin-2-yl)-2-methoxybenzimidazole], the melting point lay in the range of 121 to 122 °C.

`COc1cc(OC)nc(-n2c(C)nc3cc(C)ccc32)n1` [Compound I-186, 1-(4,6-dimethoxypyrimidin-2-yl)-2,5-dimethylbenzimidazole] came in with a melting point of 163 to 166 °C. Besides, the Biological effectiveness result in the series on Erysiphe graminis was “A (No diseased area)”.

Turning to `COc1nc(OC)nc(-n2c(C)nc3cc(Cl)ccc32)n1` [Compound I-215, 5-chloro-1-(4,6-dimethoxy-[1,3,5]triazin-2-yl)-2-methylbenzimidazole], the melting point lay in the range of 173 to 176 °C. In the series with Erysiphe graminis, the Biological effectiveness entry was “A (No diseased area)”.

Molecule `COc1cc(OC)nc(-n2c(Cl)nc3cc(C)ccc32)n1` [Compound I-258, 2-chloro-1-(4,6-dimethoxypyrimidin-2-yl)-5-methylbenzimidazole] registered a melting point of 145 to 148 °C. In the series on Erysiphe graminis, the Biological effectiveness entry is on record as “A (No diseased area)”.

`COc1nc(OC)nc(-n2c(Cl)nc3cc(Cl)ccc32)n1` [Compound I-277, 2,5-dichloro-1-(4,6-dimethoxy-[1,3,5]triazin-2-yl)benzimidazole] registered a melting point of 146 to 149 °C. Besides, the Biological effectiveness entry in the series on Erysiphe graminis is recorded as “B (Diseased area of less than 25%)”.

For `COc1cc(OC)nc(-n2c(C(F)(F)F)nc3cc(C)ccc32)n1` [Compound I-298, 1-(4,6-dimethoxypyrimidin-2-yl)-5-methyl-2-trifluoromethylbenzimidazole], the melting point is 93 to 96 °C. The Biological effectiveness entry with Erysiphe graminis was “A (No diseased area)”.

For the molecule `COc1nc(OC)nc(-n2c(C(F)(F)F)nc3cc(C)ccc32)n1` [Compound I-312, 1-(4,6-dimethoxy-[1,3,5]triazin-2-yl)-5-methyl-2-trifluoromethylbenzimidazole], the melting point lay in the range of 137 to 140 °C. For the same molecule, the Biological effectiveness result with Erysiphe graminis is recorded as “A (No diseased area)”.

The molecule `COc1cc(OC)nc(-n2c(N)nc3cc(C)ccc32)n1` [Compound I-362, 2-amino-1-(4,6-dimethoxypyrimidin-2-yl)-5-methylbenzimidazole] yielded a melting point greater than 300 °C. In addition, the Biological effectiveness entry in the series on Erysiphe graminis is given as “A (No diseased area)”.

Take `COc1nc(OC)nc(-n2c(N)nc3cc(Cl)ccc32)n1` [Compound I-368, 2-amino-5-chloro-1-(4,6-dimethoxy-[1,3,5]triazin-2-yl)benzimidazole]: the melting point was in the range of 293 to 296 °C. Further, in the series on Erysiphe graminis, the Biological effectiveness entry is reported as “B (Diseased area of less than 25%)”.

`COc1ccnc(-n2cnc3ccccc32)n1` [Compound I-667, 1-(4-methoxypyrimidin-2-yl)-benzimidazole] registered a melting point of 114 to 116 °C. In addition, in the series with Erysiphe graminis, the Biological effectiveness result is “B (Diseased area of less than 25%)”.

Turning to `CCCc1cc(OC)nc(-n2c(C)nc3cc(C)ccc32)n1` [Compound I-965], the Biological effectiveness entry in the series with Erysiphe graminis is reported as “A (No diseased area)”.

For the molecule `CCCc1cc(OC)nc(-n2c(C)nc3ccc(Cl)cc32)n1` [Compound I-967], the Biological effectiveness result with Erysiphe graminis is “A (No diseased area)”.

Turning to `CCCc1nc(OC)nc(-n2c(C)nc3cc(C)ccc32)n1` [Compound I-999], in the series with Erysiphe graminis, the Biological effectiveness entry is “A (No diseased area)”.

As for `CCCc1nc(OC)nc(-n2c(C(F)(F)F)nc3cc(C)ccc32)n1` [Compound I-1004], the Biological effectiveness entry in the series with Erysiphe graminis is “A (No diseased area)”.

Consider `COc1nc(C2CC2)nc(-n2c(C)nc3cc(C)ccc32)n1` [Compound I-1019], for which the Biological effectiveness result in the series on Erysiphe graminis was “A (No diseased area)”.

In the case of `COc1nc(C2CC2)nc(-n2c(C(F)(F)F)nc3cc(C)ccc32)n1` [Compound I-1022], the Biological effectiveness entry in the series on Erysiphe graminis is recorded as “A (No diseased area)”.

Regarding `CSc1nc(SC)nc(-n2c(C)nc3ccccc32)n1` [Compound I-1042, 1-(4,6-dimethylthio-[1,3,5]triazin-2-yl)-2-methylbenzimidazole], the melting point was 176 to 179 °C.

In the case of `CSc1nc(SC)nc(-n2c(C)nc3cc(Cl)ccc32)n1` [Compound I-1043], in the series on Erysiphe graminis, the Biological effectiveness result is “A (No diseased area)”.

With `CSc1nc(SC)nc(-n2c(C(F)(F)F)nc3cc(Cl)ccc32)n1` [Compound I-1046], in the series on Erysiphe graminis, the Biological effectiveness entry is reported as “A (No diseased area)”.

As for `CSc1nc(C)nc(-n2c(C(F)(F)F)nc3cc(C)ccc32)n1` [Compound I-1048], in the series with Erysiphe graminis, the Biological effectiveness entry is reported as “A (No diseased area)”.

For `COc1nc(-c2ccccc2)nc(-n2c(C)nc3cc(C)ccc32)n1` [Compound I-1058], in the series on Erysiphe graminis, the Biological effectiveness entry is on record as “A (No diseased area)”.

For `COc1nc(-c2ccccc2)nc(-n2c(C(F)(F)F)nc3ccc(C)cc32)n1` [Compound I-1059], the Biological effectiveness entry in the series on Erysiphe graminis is listed as “A (No diseased area)”.

Turning to `Cc1nc2cc(Cl)c(Cl)cc2n1-c1nc(Cl)cc(Cl)n1` [Compound I-1064], in the series on Erysiphe graminis, the Biological effectiveness result is listed as “B (Diseased area of less than 25%)”.

In the case of `Cc1nc2ccccc2n1-c1nc(Cl)nc(Cl)n1` [Compound I-1066, 1-(4,6-dichloro-[1,3,5]triazin-2-yl)-2-methylbenzimidazole], the melting point is greater than 300 °C.

Take `Cc1nc2cc(Cl)ccc2n1-c1nc(N(C)C)nc(N(C)C)n1` [Compound I-1071]: in the series on Erysiphe graminis, the Biological effectiveness result is reported as “A (No diseased area)”.

`Cc1cc(C)nc(-n2cnc3ccccc32)n1` [Compound I-1079]: the Biological effectiveness result in the series on Erysiphe graminis was “B (Diseased area of less than 25%)”.

On to `Cc1cc(C(F)(F)F)nc(-n2cnc3ccccc32)n1` [Compound I-1082], for which, in the series on Erysiphe graminis, the Biological effectiveness entry is recorded as “B (Diseased area of less than 25%)”.

Take `CCc1cc(C)nc(-n2cnc3ccccc32)n1` [Compound I-1085]: in the series on Erysiphe graminis, the Biological effectiveness result was “A (No diseased area)”.

Turning to `CCc1cc(C)nc(-n2cnc3cc(C)ccc32)n1` [Compound I-1086], the Biological effectiveness result in the series on Erysiphe graminis was “B (Diseased area of less than 25%)”.

`CCc1cc(C)nc(-n2c(C)nc3cc(C)ccc32)n1` [Compound I-1087]: the Biological effectiveness entry with Erysiphe graminis is given as “A (No diseased area)”.

Turning to `CCc1cc(C)nc(-n2c(C)nc3cc(Cl)ccc32)n1` [Compound I-1088], the Biological effectiveness entry in the series on Erysiphe graminis is recorded as “A (No diseased area)”.

With `CCc1cc(C)nc(-n2c(C)nc3ccc(Cl)cc32)n1` [Compound I-1090], the Biological effectiveness result in the series on Erysiphe graminis is recorded as “B (Diseased area of less than 25%)”.

Take `CCc1cc(CC)nc(-n2cnc3ccccc32)n1` [Compound I-1093]: the Biological effectiveness result in the series with Erysiphe graminis is reported as “A (No diseased area)”.

Take `CCc1cc(CC)nc(-n2cnc3cc(C)ccc32)n1` [Compound I-1094]: the Biological effectiveness result in the series with Erysiphe graminis is reported as “A (No diseased area)”.

On to `CCc1cc(CC)nc(-n2c(C)nc3cc(C)ccc32)n1` [Compound I-1095], for which the Biological effectiveness entry in the series on Erysiphe graminis is recorded as “A (No diseased area)”.

As to `CCc1cc(CC)nc(-n2c(C)nc3cc(Cl)ccc32)n1` [Compound I-1096], the Biological effectiveness result with Erysiphe graminis was “A (No diseased area)”.

For the molecule `CCc1cc(CC)nc(-n2c(C)nc3ccc(Cl)cc32)n1` [Compound I-1098], in the series on Erysiphe graminis, the Biological effectiveness entry is “A (No diseased area)”.

With `Cc1ccc2c(c1)nc(C)n2-c1nc(C)cc(C2CC2)n1` [Compound I-1103], the Biological effectiveness result in the series with Erysiphe graminis was “B (Diseased area of less than 25%)”.

As for `Cc1cc(C2CC2)nc(-n2c(C)nc3cc(Cl)ccc32)n1` [Compound I-1104], the Biological effectiveness result with Erysiphe graminis is recorded as “B (Diseased area of less than 25%)”.

Take `Cc1cc(C2CC2)nc(-n2c(C)nc3ccc(Cl)cc32)n1` [Compound I-1106]: the Biological effectiveness entry in the series with Erysiphe graminis was “B (Diseased area of less than 25%)”.

As for `CC#Cc1cc(C)nc(-n2cnc3ccccc32)n1` [Compound I-1123], the Biological effectiveness entry in the series on Erysiphe graminis is recorded as “B (Diseased area of less than 25%)”.

For the molecule `Cc1cc(C#N)nc(-n2c(C)nc3ccccc32)n1` [Compound I-1147], the Biological effectiveness entry in the series on Erysiphe graminis is “B (Diseased area of less than 25%)”.
